# Results as given in PMC10782225 (The FASEB Journal, 2023).
# Biological target: T1, unaltered α7β2‐nAChR (Homo sapiens, UniProt P17787+P36544)
# T1 construct: expressed in transfected cells; host or cells: Xenopus laevis oocytes, cRNA injection
# Assay: ACh concentration‐response curve, TEVC, unaltered α7β2‐nAChR
# Assay type: cell-based
# Conditions: mean ± SEM of 15–19 oocytes
# From the text: Stimulations lasted 3 s, and were applied sequentially, 60 s apart.
# T1 sequence (P36544 23-502): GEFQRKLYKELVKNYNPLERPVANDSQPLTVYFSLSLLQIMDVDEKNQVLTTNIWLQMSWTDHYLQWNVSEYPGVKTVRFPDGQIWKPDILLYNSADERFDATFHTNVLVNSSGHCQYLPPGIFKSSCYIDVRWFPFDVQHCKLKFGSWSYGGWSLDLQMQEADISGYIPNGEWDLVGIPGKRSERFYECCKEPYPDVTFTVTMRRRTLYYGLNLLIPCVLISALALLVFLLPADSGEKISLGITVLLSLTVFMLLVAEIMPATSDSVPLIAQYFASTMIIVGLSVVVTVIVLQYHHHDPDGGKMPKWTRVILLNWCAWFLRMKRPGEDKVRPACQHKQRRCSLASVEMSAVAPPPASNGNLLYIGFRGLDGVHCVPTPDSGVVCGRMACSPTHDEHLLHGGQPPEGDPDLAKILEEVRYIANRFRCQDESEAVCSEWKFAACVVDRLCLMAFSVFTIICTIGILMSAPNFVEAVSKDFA
# T1 sequence (P17787 26-502): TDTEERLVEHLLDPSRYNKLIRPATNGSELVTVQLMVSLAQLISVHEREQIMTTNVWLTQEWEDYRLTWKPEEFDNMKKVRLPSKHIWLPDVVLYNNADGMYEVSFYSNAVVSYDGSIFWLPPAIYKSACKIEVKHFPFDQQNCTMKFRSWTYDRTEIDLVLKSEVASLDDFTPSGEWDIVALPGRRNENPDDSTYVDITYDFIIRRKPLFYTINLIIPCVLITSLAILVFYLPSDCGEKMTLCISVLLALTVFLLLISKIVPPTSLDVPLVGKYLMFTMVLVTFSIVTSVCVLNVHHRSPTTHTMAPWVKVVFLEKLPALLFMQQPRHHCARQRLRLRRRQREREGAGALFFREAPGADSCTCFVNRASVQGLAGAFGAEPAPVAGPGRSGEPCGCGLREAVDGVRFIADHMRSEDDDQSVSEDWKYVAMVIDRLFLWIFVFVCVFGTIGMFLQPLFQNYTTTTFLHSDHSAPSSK
smiles,measurement,setting,value
"CC(=O)OCC[N+](C)(C)C [ACh, acetylcholine]","Imax, maximum function induced by ACh, unaltered α7β2‐nAChR","ACh 10 μM – 10 mM, half‐log steps, 3 s, 60 s apart",1353 ± 149 nA
same,"hillslope (nH), unaltered α7β2‐nAChR",logistic fit per oocyte,1.03 ± 0.07
